Test results reported in PubChem BioAssay (NCI).
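Tested at 5 concentrations; 48 h exposure; 96-well plates; endpoints linearly interpolated, else capped at highest concentration. Abbreviation: GI50, concentration required for 50% inhibition of growth. Definition used: TGI = concentration required for complete inhibition of growth.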

Tests used:
Assay in all cases: growth of human tumour cells (NCI), 48 h
786-0 renal = test system: 786-0 renal
A498 renal = test system: A498 renal
A549 NSCLC = test system: A549 NSCLC
ACHN renal = test system: ACHN renal
BT-549 breast = test system: BT-549 breast
CAKI-1 renal = test system: CAKI-1 renal
CCRF-CEM leukemia = test system: CCRF-CEM leukemia
COLO 205 colon = test system: COLO 205 colon
DU-145 prostate = test system: DU-145 prostate
EKVX NSCLC = test system: EKVX NSCLC
HCC-2998 colon = test system: HCC-2998 colon
HCT-116 colon = test system: HCT-116 colon
HCT-15 colon = test system: HCT-15 colon
HL-60(TB) leukemia = test system: HL-60(TB) leukemia
HOP-62 NSCLC = test system: HOP-62 NSCLC
HOP-92 NSCLC = test system: HOP-92 NSCLC
HS 578T breast = test system: HS 578T breast
HT29 colon = test system: HT29 colon
IGROV1 ovarian = test system: IGROV1 ovarian
K-562 leukemia = test system: K-562 leukemia
KM12 colon = test system: KM12 colon
M14 melanoma = test system: M14 melanoma
MALME-3M melanoma = test system: MALME-3M melanoma
MCF7 breast = test system: MCF7 breast
MDA-MB-231 breast = test system: MDA-MB-231 breast
MDA-MB-435 = test system: MDA-MB-435
MOLT-4 leukemia = test system: MOLT-4 leukemia
NCI-H226 lung = test system: NCI-H226 lung
NCI-H23 lung = test system: NCI-H23 lung
NCI-H460 lung = test system: NCI-H460 lung
NCI-H522 lung = test system: NCI-H522 lung
NCI/ADR-RES ovarian = test system: NCI/ADR-RES ovarian
OVCAR-3 ovarian = test system: OVCAR-3 ovarian
OVCAR-5 ovarian = test system: OVCAR-5 ovarian
OVCAR-8 ovarian = test system: OVCAR-8 ovarian
PC-3 prostate = test system: PC-3 prostate
RXF 393 renal = test system: RXF 393 renal
SF-268 CNS = test system: SF-268 CNS
SF-295 CNS = test system: SF-295 CNS
SF-539 CNS = test system: SF-539 CNS
SK-MEL-2 melanoma = test system: SK-MEL-2 melanoma
SK-MEL-28 melanoma = test system: SK-MEL-28 melanoma
SK-MEL-5 melanoma = test system: SK-MEL-5 melanoma
SK-OV-3 ovarian = test system: SK-OV-3 ovarian
SN12C renal = test system: SN12C renal
SNB-19 CNS = test system: SNB-19 CNS
SNB-75 CNS = test system: SNB-75 CNS
SW-620 colon = test system: SW-620 colon
T-47D breast = test system: T-47D breast
TK-10 renal = test system: TK-10 renal
U251 CNS = test system: U251 CNS
UACC-257 melanoma = test system: UACC-257 melanoma
UACC-62 melanoma = test system: UACC-62 melanoma
UO-31 renal = test system: UO-31 renal

SMILES: COC(=O)c1ccc(NC2=C/C(=N/S(=O)(=O)c3ccc(C(=O)O)cc3)c3ccccc3C2=O)cc1
- GI50 (786-0 renal): 10.9 µM
- TGI (786-0 renal): 58.4 µM
- GI50 (A498 renal): 22.9 µM
- TGI (A498 renal): 42.4 µM
- GI50 (A549 NSCLC): 29.8 µM
- TGI (A549 NSCLC): > 100 µM
- GI50 (ACHN renal): 1.88 µM
- TGI (ACHN renal): 4.19 µM
- GI50 (BT-549 breast): 15 µM
- TGI (BT-549 breast): 32.6 µM
- GI50 (CAKI-1 renal): 10 µM
- TGI (CAKI-1 renal): 23.1 µM
- GI50 (CCRF-CEM leukemia): 3.21 µM
- TGI (CCRF-CEM leukemia): > 100 µM
- GI50 (COLO 205 colon): 17.7 µM
- TGI (COLO 205 colon): 38.1 µM
- GI50 (DU-145 prostate): 11.7 µM
- TGI (DU-145 prostate): 24.7 µM
- GI50 (EKVX NSCLC): 2.1 µM
- TGI (EKVX NSCLC): 5.83 µM
- GI50 (HCC-2998 colon): 10.4 µM
- TGI (HCC-2998 colon): 27 µM
- GI50 (HCT-116 colon): 2.81 µM
- TGI (HCT-116 colon): 10.2 µM
- GI50 (HCT-15 colon): 11 µM
- TGI (HCT-15 colon): 35.5 µM
- GI50 (HL-60(TB) leukemia): 2.55 µM
- TGI (HL-60(TB) leukemia): 6.52 µM
- GI50 (HOP-62 NSCLC): 17.3 µM
- TGI (HOP-62 NSCLC): 38.3 µM
- GI50 (HOP-92 NSCLC): 3.71 µM
- TGI (HOP-92 NSCLC): 15.6 µM
- GI50 (HS 578T breast): 3.36 µM
- TGI (HS 578T breast): 48 µM
- GI50 (HT29 colon): 21.3 µM
- TGI (HT29 colon): 47.4 µM
- GI50 (IGROV1 ovarian): 4.92 µM
- TGI (IGROV1 ovarian): 20.8 µM
- GI50 (K-562 leukemia): 3.19 µM
- TGI (K-562 leukemia): > 100 µM
- GI50 (KM12 colon): 10.7 µM
- TGI (KM12 colon): 25.3 µM
- GI50 (M14 melanoma): 5.7 µM
- TGI (M14 melanoma): 23.9 µM
- GI50 (MALME-3M melanoma): 1.89 µM
- TGI (MALME-3M melanoma): 3.52 µM
- GI50 (MCF7 breast): 1.89 µM
- TGI (MCF7 breast): 4.4 µM
- GI50 (MDA-MB-231 breast): 2.51 µM
- TGI (MDA-MB-231 breast): 8.1 µM
- GI50 (MDA-MB-435): 1.95 µM
- TGI (MDA-MB-435): 3.67 µM
- GI50 (MOLT-4 leukemia): 1.74 µM
- TGI (MOLT-4 leukemia): 4.47 µM
- GI50 (NCI-H226 lung): 15.2 µM
- TGI (NCI-H226 lung): 34.6 µM
- GI50 (NCI-H23 lung): 3.18 µM
- TGI (NCI-H23 lung): 18.2 µM
- GI50 (NCI-H460 lung): 20.6 µM
- TGI (NCI-H460 lung): 50.8 µM
- GI50 (NCI-H522 lung): 1.92 µM
- TGI (NCI-H522 lung): 4.76 µM
- GI50 (NCI/ADR-RES ovarian): 3.06 µM
- TGI (NCI/ADR-RES ovarian): 11.8 µM
- GI50 (OVCAR-3 ovarian): 2.17 µM
- TGI (OVCAR-3 ovarian): 5.94 µM
- GI50 (OVCAR-5 ovarian): 14 µM
- TGI (OVCAR-5 ovarian): 33.4 µM
- GI50 (OVCAR-8 ovarian): 3.2 µM
- TGI (OVCAR-8 ovarian): 46.2 µM
- GI50 (PC-3 prostate): 3.4 µM
- TGI (PC-3 prostate): 25.3 µM
- GI50 (RXF 393 renal): 8.1 µM
- TGI (RXF 393 renal): 22.4 µM
- GI50 (SF-268 CNS): 6.33 µM
- TGI (SF-268 CNS): 37.5 µM
- GI50 (SF-295 CNS): 11.7 µM
- TGI (SF-295 CNS): 26.9 µM
- GI50 (SF-539 CNS): 1.79 µM
- TGI (SF-539 CNS): 3.38 µM
- GI50 (SK-MEL-2 melanoma): 2.35 µM
- TGI (SK-MEL-2 melanoma): 6.51 µM
- GI50 (SK-MEL-28 melanoma): 2.46 µM
- TGI (SK-MEL-28 melanoma): 5.89 µM
- GI50 (SK-MEL-5 melanoma): 3.18 µM
- TGI (SK-MEL-5 melanoma): 10.1 µM
- GI50 (SK-OV-3 ovarian): 21 µM
- TGI (SK-OV-3 ovarian): 44.5 µM
- GI50 (SN12C renal): 2.13 µM
- TGI (SN12C renal): 5.15 µM
- GI50 (SNB-19 CNS): 16.9 µM
- TGI (SNB-19 CNS): 33.2 µM
- GI50 (SNB-75 CNS): 2.1 µM
- TGI (SNB-75 CNS): 10.1 µM
- GI50 (SW-620 colon): 2.78 µM
- TGI (SW-620 colon): > 100 µM
- GI50 (T-47D breast): 3.19 µM
- TGI (T-47D breast): 26.8 µM
- GI50 (TK-10 renal): 25.2 µM
- TGI (TK-10 renal): 42.8 µM
- GI50 (U251 CNS): 4.01 µM
- TGI (U251 CNS): 28.8 µM
- GI50 (UACC-257 melanoma): 2.06 µM
- TGI (UACC-257 melanoma): 4.6 µM
- GI50 (UACC-62 melanoma): 2.08 µM
- TGI (UACC-62 melanoma): 4.55 µM
- GI50 (UO-31 renal): 2.94 µM
- TGI (UO-31 renal): 15.3 µM
